According to patent publication US8178506B2, “Oligomeric compounds and compositions for use in modulation of small non-coding RNAs” (Regulus Therapeutics Inc., priority 2003, dated 2012):
In the oligonucleotide strings, read from the 5' end, every base follows the letter of its sugar. An asterisk marks phosphorothioate; unmarked linkages are phosphodiester. Other units and linkages are bracketed, terminal groups are in braces. A string of capitals states the bases alone. e = 2'-O-(2-methoxyethyl) (MOE); [5mC] = 5-methylcytosine; d = 2'-deoxy (DNA)

Columns and labels:
Assay type in all cases: cell-based, human
[1] = test system: adipocytes; assay: Triglyceride accumulation assay in adipocytes
[2] = test system: aP2; assay: aP2 mRNA expression in adipocytes (real-time PCR); conditions: for aP2 mRNA: Table 75
[3] = test system: HSL; assay: HSL mRNA expression in adipocytes (real-time PCR)
[4] = test system: Glut4; assay: Glut4 mRNA expression in adipocytes (real-time PCR)
[5] = test system: PPARγ; assay: PPARγ mRNA expression in adipocytes (real-time PCR)
[6] = Table 17, differentiating adipocytes, control = treatment with ISIS 342673
[7] = differentiating adipocytes transfected with oligomeric compound, Table 75
[8] = differentiating adipocytes transfected with oligomeric compound
[9] = 300 nM, differentiating adipocytes day 10 post-induction, 24 hours after treatment
[10] = Table 18, differentiating adipocytes, control = treatment with ISIS 342673

Substance | TG (triglyceride accumulation) [1, 6] | TG (triglyceride accumulation) [1, 7] | AP2 mRNA [2, 6] | aP2 mRNA [2, 8] | HSL mRNA [3, 6] | HSL mRNA [3, 7] | GLUT4 mRNA [4, 6] | GLUT4 mRNA [4, 7] | PPAR gamma mRNA [5, 6] | PPAR gamma mRNA [5, 7] | TG (triglyceride accumulation) [1, 10] | AP2 mRNA [2, 10] | HSL mRNA [3, 10] | GLUT4 mRNA [4, 10] | PPAR gamma mRNA [5, 10] | also measured
328139 (eT*eA*e[5mC]*eT*eT*eT*eT*e[5mC]*eA*eT*eT*e[5mC]*e[5mC]*e[5mC]*e[5mC]*eT*e[5mC]*eA*e[5mC]*e[5mC]*eA; anti-miR) [compound 328139] | 89.1 percentage of control | 90 percentage of untreated control (UTC) | 98.3 percentage of control | 100 percentage of untreated control (UTC) | 92.6 percentage of control | 116 percentage of untreated control (UTC) | 106.3 percentage of control | 85 percentage of untreated control (UTC) | 115.0 percentage of control | 91 percentage of untreated control (UTC) |  |  |  |  |  | 
105990 (antisense AGCAAAAGATCAATCCGTTA; sugars from the 5' end e5 d10 e5, backbone and methylation of C not given here) [compound 105990] | 28.2 percentage of control |  | 51.6 percentage of control |  | 49.2 percentage of control |  | 59.5 percentage of control |  | 51.8 percentage of control |  | 32.8 percentage of control | 49.8 percentage of control | 52.0 percentage of control | 68.1 percentage of control | 60.1 percentage of control | Triglycerides [1, 9]: 16.6 % UTC; AP2 mRNA [2, 9]: 17.9 % UTC; HSL mRNA [3, 9]: 7.4 % UTC; GLUT4 mRNA [4, 9]: 11.8 % UTC; PPAR-gamma mRNA [5, 9]: 43.9 % UTC
346910 (GCAAUCAGCUAACUACACUGCCU; all 2'-MOE, all phosphorothioate, methylation of C and T or U not given here) [compound 346910] |  | 80 percentage of untreated control (UTC) |  | 78 percentage of untreated control (UTC) |  | 69 percentage of untreated control (UTC) |  | 63 percentage of untreated control (UTC) |  | 83 percentage of untreated control (UTC) |  |  |  |  |  | 
346691 (GCAGAAGCAUUUCCACACAC; all 2'-MOE, all phosphorothioate, methylation of C and T or U not given here) [compound 346691] |  | 56 percentage of untreated control (UTC) |  | 69 percentage of untreated control (UTC) |  | 69 percentage of untreated control (UTC) |  | 64 percentage of untreated control (UTC) |  | 79 percentage of untreated control (UTC) |  |  |  |  |  | 
328112 (antisense eA*eT*e[5mC]*eA*eT*eT*eA*e[5mC]*eT*eG*eG*eA*eT*eT*eG*e[5mC]*eT*eG*eT*eA*eA) [compound 328112] |  |  |  |  |  |  |  |  |  |  | 98.1 percentage of control | 99.1 percentage of control | 101.2 percentage of control | 122.5 percentage of control | 102.4 percentage of control | TG (triglyceride accumulation) [1, 8]: 92 percentage of untreated control (UTC); AP2 mRNA [2, 8]: 73 percentage of untreated control (UTC); HSL mRNA [3, 8]: 89 percentage of untreated control (UTC); GLUT4 mRNA [4, 8]: 97 percentage of untreated control (UTC); PPAR gamma mRNA [5, 8]: 79 percentage of untreated control (UTC)
328089 (antisense eA*e[5mC]*eT*eG*eT*eA*eG*eG*eA*eA*eT*eA*eT*eG*eT*eT*eT*eG*eA*eT*eA) [compound 328089] |  | 67 percentage of untreated control (UTC) |  | 50 percentage of untreated control (UTC) |  | 55 percentage of untreated control (UTC) |  | 59 percentage of untreated control (UTC) |  | 79 percentage of untreated control (UTC) |  |  |  |  |  | 
